Here are results for 15 compounds from US20260297081A1, “COMPOUNDS AND METHODS OF TREATING CANCERS” (Cullgen Inc., priority 2023, published 2026).

This experiment has as its target CDK4 (Homo sapiens, UniProt P11802+Q16531). The experiment in a line: CDK4 percentage degradation in Calu-1 cells (Table 6). On the set-up: Cells that express cyclin D1-3 and CDK4/6 proteins were treated with heterobifunctional compounds; endogenous in cells; host or cells: Calu-1. The conditions noted are these: 16 hours; for inhibition at 0.04 µM: 40 nM; for inhibition at 0.2 µM: 200 nM. Type of experiment: cell-based. A digest of the protocol: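 Calu-1 cells exposed to heterobifunctional compounds at 40 nM or 200 nM for 16 h. Cyclin D1 and CDK4 levels measured by Western blot of RIPA lysates (BCA-normalised loading), bands quantified by densitometry and expressed as percentage degradation.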

Molecules are shown by their SMILES.

CDK4, sequence (P11802 2-303 limits assumed): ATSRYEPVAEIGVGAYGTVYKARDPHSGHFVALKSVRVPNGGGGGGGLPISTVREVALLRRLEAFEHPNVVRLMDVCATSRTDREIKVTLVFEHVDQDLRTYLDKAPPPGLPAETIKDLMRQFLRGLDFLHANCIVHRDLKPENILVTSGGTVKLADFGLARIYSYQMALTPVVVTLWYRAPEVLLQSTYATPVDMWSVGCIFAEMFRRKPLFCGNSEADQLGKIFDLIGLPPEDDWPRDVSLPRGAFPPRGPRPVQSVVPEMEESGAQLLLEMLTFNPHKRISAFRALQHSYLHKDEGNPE
CDK4, sequence (P24385 whole entry partner): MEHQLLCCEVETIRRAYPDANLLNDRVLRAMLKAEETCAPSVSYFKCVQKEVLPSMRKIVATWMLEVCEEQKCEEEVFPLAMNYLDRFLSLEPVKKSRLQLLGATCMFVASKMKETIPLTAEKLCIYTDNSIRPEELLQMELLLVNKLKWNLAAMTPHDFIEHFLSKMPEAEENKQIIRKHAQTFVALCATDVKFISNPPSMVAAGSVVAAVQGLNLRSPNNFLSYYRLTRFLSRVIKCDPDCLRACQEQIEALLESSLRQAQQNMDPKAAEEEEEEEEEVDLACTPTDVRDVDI
CDK4, sequence (Q16531 2-1140 limits assumed): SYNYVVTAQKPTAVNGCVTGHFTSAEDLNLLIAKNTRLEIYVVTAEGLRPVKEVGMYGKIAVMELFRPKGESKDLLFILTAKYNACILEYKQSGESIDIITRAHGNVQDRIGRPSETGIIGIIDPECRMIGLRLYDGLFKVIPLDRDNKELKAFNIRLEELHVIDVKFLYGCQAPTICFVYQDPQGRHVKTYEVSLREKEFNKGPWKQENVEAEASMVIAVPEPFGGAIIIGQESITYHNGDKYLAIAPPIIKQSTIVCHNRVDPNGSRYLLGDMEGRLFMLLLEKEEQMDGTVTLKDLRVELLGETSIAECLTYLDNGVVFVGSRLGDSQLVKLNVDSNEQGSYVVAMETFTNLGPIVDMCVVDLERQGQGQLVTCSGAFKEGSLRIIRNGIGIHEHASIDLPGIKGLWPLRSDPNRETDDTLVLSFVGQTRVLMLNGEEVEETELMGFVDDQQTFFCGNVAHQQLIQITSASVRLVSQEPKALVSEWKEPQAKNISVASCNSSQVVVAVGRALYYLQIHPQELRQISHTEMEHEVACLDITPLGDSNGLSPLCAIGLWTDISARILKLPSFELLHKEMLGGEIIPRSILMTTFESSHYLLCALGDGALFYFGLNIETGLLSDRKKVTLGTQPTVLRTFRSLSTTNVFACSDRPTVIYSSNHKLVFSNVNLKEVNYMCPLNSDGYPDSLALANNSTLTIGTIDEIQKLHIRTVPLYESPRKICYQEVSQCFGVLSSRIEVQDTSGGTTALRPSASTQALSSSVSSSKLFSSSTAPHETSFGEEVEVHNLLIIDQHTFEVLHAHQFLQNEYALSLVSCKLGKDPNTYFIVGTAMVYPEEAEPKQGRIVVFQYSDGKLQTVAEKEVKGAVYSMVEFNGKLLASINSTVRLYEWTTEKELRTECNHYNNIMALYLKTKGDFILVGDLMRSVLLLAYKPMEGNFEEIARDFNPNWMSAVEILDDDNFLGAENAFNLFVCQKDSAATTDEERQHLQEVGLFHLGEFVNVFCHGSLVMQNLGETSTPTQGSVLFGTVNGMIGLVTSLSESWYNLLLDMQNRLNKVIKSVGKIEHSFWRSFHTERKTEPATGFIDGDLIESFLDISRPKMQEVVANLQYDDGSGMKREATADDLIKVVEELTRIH

`CNc1ccc(C(=O)Nc2ccc(N(C)C)nn2)c(NC[C@H]2CC[C@H](CNC(=O)N3CCN(c4ccc(Nc5ncc6c(C)c(C(C)=O)c(=O)n(C7CCCC7)c6n5)nc4)CC3)CC2)n1` [CPD-169, 4-(6-((6-acetyl-8-cyclopentyl-5-methyl-7-oxo-7,8-dihydropyrido[2,3-d]pyrimidin-2-yl)amino)pyridin-3-yl)-N-((trans-4-(((3-((6-(dimethylamino)pyridazin-3-yl)carbamoyl)-6-(methylamino)pyridin-2-yl)amino)methyl)cyclohexyl)menthyl)piperazine-1-carboxamide] showed an inhibition at 0.04 µM of less than 30% and an inhibition at 0.2 µM of 30 to 50%.
On the same counts, the results for `CNc1ccc(C(=O)Nc2ccc(N(C)C)nn2)c(NC2CC(CNC(=O)C3(CN4CCN(c5ccc(Nc6ncc7c(C)c(C(C)=O)c(=O)n(C8CCCC8)c7n6)nc5)CC4)CC3)C2)n1` (stereo not drawn) [CPD-172, 2-((3-((1-((4-(6-((6-acetyl-8-cyclopentyl-5-methyl-7-oxo-7,8-dihydropyrido[2,3-d]pyrimidin-2-yl)amino)pyridin-3-yl)piperazin-1-yl)methyl)cyclopropane-1-carboxamido)methyl)cyclobutyl)amino)-N-(6-(dimethylamino)pyridazin-3-yl)-6-(methylamino)nicotinamide] are 50 to 80% and 50 to 80%.
For `CNc1ccc(C(=O)Nc2cccc(C3CC3)n2)c(NC2CC3(C2)CN(C(=O)C(C)(C)N2CCN(c4ccc(Nc5ncc6c(C)c(C(C)=O)c(=O)n(C7CCCC7)c6n5)nc4)CC2)C3)n1` [CPD-175, 2-((2-(2-(4-(6-((6-acetyl-8-cyclopentyl-5-methyl-7-oxo-7,8-dihydropyrido[2,3-d]pyrimidin-2-yl)amino)pyridin-3-yl)piperazin-1-yl)-2-methylpropanoyl)-2-azaspiro[3.3]heptan-6-yl)amino)-N-(6-cyclopropylpyridin-2-yl)-6-(methylamino)nicotinamide], in that order: less than 30% and 50 to 80%.
For `CNc1ccc(C(=O)Nc2cccc(C)n2)c(NC2CC3(C2)CN(C(=O)C(C)(C)N2CCN(c4ccc(Nc5ncc6c(C)c(C(C)=O)c(=O)n(C7CCCC7)c6n5)nc4)CC2)C3)n1` [CPD-176, 2-((2-(2-(4-(6-((6-acetyl-8-cyclopentyl-5-methyl-7-oxo-7,8-dihydropyrido[2,3-di]pyrimidin-2-yl)amino)pyridin-3-yl)piperazin-1-yl)-2-methylpropanoyl)-2-azaspiro[3.3]heptan-6-yl)amino)-6-(methylamino)-N-(6-methylpyridin-2-yl)nicotinamide], in that order: less than 30% and 50 to 80%.
Turning to `CNc1ccc(C(=O)Nc2ccc(N(C)C)c(C3CC3)n2)c(NC2CC3(CC(NC(=O)CN4CCN(c5ccc(Nc6ncc7c(C)c(C(C)=O)c(=O)n(C8CCCC8)c7n6)nc5)CC4)C3)C2)n1` (stereo not drawn) [CPD-177, 2-((6-(2-(4-(6-((6-acetyl-8-cyclopentyl-5-methyl-7-oxo-7,8-dihydropyrido[2,3-d]pyrimidin-2-yl)amino)pyridin-3-yl)piperazin-1-yl)acetamido)spiro[3.3]heptan-2-yl)amino)-N-(6-cyclopropyl-5-(dimethylamino)pyridin-2-yl)-6-(methylamino)nicotinamide], the inhibition at 0.04 µM was less than 30% and the inhibition at 0.2 µM fell in the range of 50 to 80%.
On the same counts, the results for `CNc1ccc(C(=O)Nc2cn(C)c(C)n2)c(NC2CC3(CC(NC(=O)CN4CCN(c5ccc(Nc6ncc7c(C)c(C(C)=O)c(=O)n(C8CCCC8)c7n6)nc5)CC4)C3)C2)n1` (stereo not drawn) [CPD-179, 2-((6-(2-(4-(6-((6-acetyl-8-cyclopentyl-5-methyl-7-oxo-7,8-dihydropyrido[2,3-d]pyrimidin-2-yl)amino)pyridin-3-yl)piperazin-1-yl)acetamido)spiro[3.3]heptan-2-yl)amino)-N-(1,2-dimethyl-1H-imidazol-4-yl)-6-(methylamino)nicotinamide] are 50 to 80% and 50 to 80%.
For `CNc1ccc(C(=O)Nc2cccc(N)n2)c(NC2CC3(CC(NC(=O)CN4CCN(c5ccc(Nc6ncc7c(C)c(C(C)=O)c(=O)n(C8CCCC8)c7n6)nc5)CC4)C3)C2)n1` (stereo not drawn) [CPD-180, 2-((6-(2-(4-(6-((6-acetyl-8-cyclopentyl-5-methyl-7-oxo-7,8-dihydropyrido[2,3-d]pyrimidin-2-yl)amino)pyridin-3-yl)piperazin-1-yl)acetamido)spiro[3.3]heptan-2-yl)amino)-N-(6-aminopyridin-2-yl)-6-(methylamino)nicotinamide], in that order: less than 30% and 30 to 50%.
For `CNc1cccc(NC(=O)c2ccc(NC)nc2NC2CC3(CC(NC(=O)CN4CCN(c5ccc(Nc6ncc7c(C)c(C(C)=O)c(=O)n(C8CCCC8)c7n6)nc5)CC4)C3)C2)n1` (stereo not drawn) [CPD-181, 2-((6-(2-(4-(6-((6-acetyl-8-cyclopentyl-5-methyl-7-oxo-7,8-dihydropyrido[2,3-d]pyrimidin-2-yl)amino)pyridin-3-yl)piperazin-1-yl)acetamido)spiro[3.3]heptan-2-yl)amino)-6-(methylamino)-N-(6-(methylamino)pyridin-2-yl)nicotinamide], in that order: 30 to 50% and 50 to 80%.
Compound `CNc1ccc(C(=O)Nc2ccc(C)c(C)n2)c(NC2CC3(CC(NC(=O)CN4CCN(c5ccc(Nc6ncc7c(C)c(C(C)=O)c(=O)n(C8CCCC8)c7n6)nc5)CC4)C3)C2)n1` (stereo not drawn) [CPD-182, 2-((6-(2-(4-(6-((6-acetyl-8-cyclopentyl-5-methyl-7-oxo-7,8-dihydropyrido[2,3-d]pyrimidin-2-yl)amino)pyridin-3-yl)piperazin-1-yl)acetamido)spiro[3.3]heptan-2-yl)amino)-N-(5,6-dimethylpyridin-2-yl)-6-(methylamino)nicotinamide] showed an inhibition at 0.04 µM of 30 to 50% and an inhibition at 0.2 µM of 30 to 50%.
In the case of `CNc1ccc(C(=O)Nc2ccn(C)c2)c(NC2CC3(CC(NC(=O)CN4CCN(c5ccc(Nc6ncc7c(C)c(C(C)=O)c(=O)n(C8CCCC8)c7n6)nc5)CC4)C3)C2)n1` (stereo not drawn) [CPD-183, 2-((6-(2-(4-(6-((6-acetyl-8-cyclopentyl-5-methyl-7-oxo-7,8-dihydropyrido[2,3-d]pyrimidin-2-yl)amino)pyridin-3-yl)piperazin-1-yl)acetamido)spiro[3.3]heptan-2-yl)amino)-N-(1-methyl-1H-pyrrol-3-yl)-6-(methylamino)nicotinamide], the inhibition at 0.04 µM was 50 to 80% and the inhibition at 0.2 µM lay within 50 to 80%.
In turn, `CNc1ccc(C(=O)Nc2cccc(C(F)F)n2)c(NC2CC3(CC(NC(=O)CN4CCN(c5ccc(Nc6ncc7c(C)c(C(C)=O)c(=O)n(C8CCCC8)c7n6)nc5)CC4)C3)C2)n1` (stereo not drawn) [CPD-184, 2-((6-(2-(4-(6-((6-acetyl-8-cyclopentyl-5-methyl-7-oxo-7,8-dihydropyrido[2,3-d]pyrimidin-2-yl)amino)pyridin-3-yl)piperazin-1-yl)acetamido)spiro[3.3]heptan-2-yl)amino)-N-(6-(difluoromethyl)pyridin-2-yl)-6-(methylamino)nicotinamide] gave an inhibition at 0.04 µM of 50 to 80% and an inhibition at 0.2 µM of 50 to 80%.
For the compound `CNc1ccc(C(=O)Nc2ccc(N(C)C)nn2)c(NC2CC(CCC(=O)N3CCN(c4ccc(Nc5ncc6c(C)c(C(C)=O)c(=O)n(C7CCCC7)c6n5)nc4)CC3)C2)n1` (stereo not drawn) [CPD-185, 2-((3-(3-(4-(6-((6-acetyl-8-cyclopentyl-5-methyl-7-oxo-7,8-dihydropyrido[2,3-d]pyrimidin-2-yl)amino)pyridin-3-yl)piperazin-1-yl)-3-oxopropyl)cyclobutyl)amino)-N-(6-(dimethylamino)pyridazin-3-yl)-6-(methylamino)nicotinamide], the inhibition at 0.04 µM was less than 30% and the inhibition at 0.2 µM fell in the range of 30 to 50%.
For `CNc1ccc(C(=O)Nc2ccc(N(C)C)nn2)c(NC2CN(C(=O)CN3CCN(c4ccc(Nc5ncc6c(C)c(C(C)=O)c(=O)n(C7CCCC7)c6n5)nc4)CC3)C2)n1` [CPD-187, 2-((1-(2-(4-(6-((6-acetyl-8-cyclopentyl-5-methyl-7-oxo-7,8-dihydropyrido[2,3-d]pyrimidin-2-yl)amino)pyridin-3-yl)piperazin-1-yl)acetyl)azetidin-3-yl)amino)-N-(6-(dimethylamino)pyridazin-3-yl)-6-(methylamino)nicotinamide], in that order: less than 30% and 50 to 80%.
As for `CNc1ccc(C(=O)Nc2ccc(N(C)C)nn2)c(NCC2CC(CNC(=O)CN3CCN(c4ccc(Nc5ncc6c(C)c(C(C)=O)c(=O)n(C7CCCC7)c6n5)nc4)CC3)C2)n1` (stereo not drawn) [CPD-188, 2-(((3-((2-(4-(6-((6-acetyl-8-cyclopentyl-5-methyl-7-oxo-7,8-dihydropyrido[2,3-d]pyrimidin-2-yl)amino)pyridin-3-yl)piperazin-1-yl)acetamido)methyl)cyclobutyl)methyl)amino)-N-(6-(dimethylamino)pyridazin-3-yl)-6-(methylamino)nicotinamide], the inhibition at 0.04 µM lay in the range of 50 to 80% and the inhibition at 0.2 µM lay in the range of 50 to 80%.
The compound `CC(=O)c1c(C)c2cnc(Nc3ccc(N4CCN(CC(=O)NC5CC6(C5)CC(Nc5nc(C)ccc5C(=O)Nc5cccc(C)n5)C6)CC4)cn3)nc2n(C2CCCC2)c1=O` (stereo not drawn) [CPD-191, 2-((6-(2-(4-(6-((6-acetyl-8-cyclopentyl-5-methyl-7-oxo-7,8-dihydropyrido[2,3-d]pyrimidin-2-yl)amino)pyridin-3-yl)piperazin-1-yl)acetamido)spiro[3.3]heptan-2-yl)amino)-6-methyl-N-(6-methylpyridin-2-yl)nicotinamide] came in with an inhibition at 0.04 µM of less than 30% and an inhibition at 0.2 µM of 30 to 50%.
